22 compounds from ChEMBL document CHEMBL4325840, “Design, synthesis and evaluation of novel hybrids between 4-anilinoquinazolines and substituted triazoles as potent cytotoxic agents” (Bioorg Med Chem Lett, 2018) can be followed below.

Molecules are shown by their SMILES. pIC50: −log10 of the molar value. Where a name gives a salt, the structure may show the parent alone.

Experiment [1] relates to SK-LU-1. Nature of the experiment: Cytotoxicity against human SK-LU-1 cells after 3 days by MTT assay. It is filed as functional, cell-based.
The subject of experiment [2] is KB. Nature of the experiment: Cytotoxicity against human KB cells after 3 days by MTT assay. The experiment is classed as functional, cell-based.
The test system of experiment [3] is SK-LU-1. Nature of the experiment: Potency index, ratio of erlotinib hydrochloride IC50 to compound IC50 for human SK-LU-1 cells. The experiment is classed as functional.
Experiment [4] concerns HepG2. Nature of the experiment: Potency index, ratio of erlotinib hydrochloride IC50 to compound IC50 for human HepG2 cells. The experiment is classed as functional.
Experiment [5] concerns KB. Nature of the experiment: Potency index, ratio of erlotinib hydrochloride IC50 to compound IC50 for human KB cells. It is filed as functional.
Experiment [6] relates to HepG2. Nature of the experiment: Potency index, ratio of erlotinib IC50 to compound IC50 for human HepG2 cells. The experiment is classed as functional.
For experiment [7], the system named is KB. Nature of the experiment: Potency index, ratio of erlotinib IC50 to compound IC50 for human KB cells. The experiment is classed as functional.
The subject of experiment [8] is HepG2. Nature of the experiment: Cytotoxicity against human HepG2 cells after 3 days by MTT assay. It is filed as functional, cell-based.
For experiment [9], the system named is SK-LU-1. Nature of the experiment: Potency index, ratio of erlotinib IC50 to compound IC50 for human SK-LU-1 cells. The experiment is classed as functional.

Consider `O=[N+]([O-])c1ccccc1-n1cc(-c2cccc(Nc3ncnc4cc5c(cc34)OCCCO5)c2)nn1`, for which the pIC50 in experiment [1] (Homo sapiens, SK-LU-1, 72 h) was 4.83; in experiment [2] (Homo sapiens, KB, 72 h) it was 4.69; in experiment [8] (Homo sapiens, HepG2, 72 h), 4.36. The “Ratio IC50” value in experiment [3], in experiment [4], in experiment [5], in experiment [6], in [7] and in experiment [9] was “<=100” throughout.

As for `O=[N+]([O-])c1cccc(-n2cc(-c3cccc(Nc4ncnc5cc6c(cc45)OCCCO6)c3)nn2)c1`, the pIC50 in experiment [1] (Homo sapiens, SK-LU-1, 72 h) is 3.64; in experiment [2] (Homo sapiens, KB, 72 h) it was 4.27; in experiment [8] (Homo sapiens, HepG2, 72 h) it was 4.11.

As for `O=[N+]([O-])c1ccccc1-n1cc(-c2cccc(Nc3ncnc4cc5c(cc34)OCO5)c2)nn1`, the negative logarithm of the IC50 (pIC50) in experiment [1] (Homo sapiens, SK-LU-1, 72 h) was 3.66; in [2] (Homo sapiens, KB, 72 h), 3.71; in experiment [8] (Homo sapiens, HepG2, 72 h) it was 3.68.

As for `O=[N+]([O-])c1ccccc1-n1cc(-c2cccc(Nc3ncnc4ccccc34)c2)nn1`, the negative-log IC50 (pIC50) in experiment [1] (Homo sapiens, SK-LU-1, 72 h) is 5.32; in [2] (Homo sapiens, KB, 72 h), 5.26; in experiment [8] (Homo sapiens, HepG2, 72 h) it was 5.33. For the same compound, the “Ratio IC50” value in [3], in [4], in experiment [5], in experiment [6], in [7] and in experiment [9] was “<=100” each time.

For the compound `C#Cc1cccc(Nc2ncnc3cc4c(cc23)OCCO4)c1`, the pIC50 in experiment [1] (Homo sapiens, SK-LU-1, 72 h) is 5.47; in experiment [2] (Homo sapiens, KB, 72 h), 5.59; in experiment [8] (Homo sapiens, HepG2, 72 h), 5.55. In addition, the “Ratio IC50” value in experiment [3], in experiment [4], in experiment [5], in experiment [6], in experiment [7] and in experiment [9] was “<=100” in each case.

As for `C#Cc1cccc(Nc2ncnc3cc4c(cc23)OCCCO4)c1`, the pIC50 in [1] (Homo sapiens, SK-LU-1, 72 h) was 4.09; in experiment [2] (Homo sapiens, KB, 72 h) it was 4.26; in experiment [8] (Homo sapiens, HepG2, 72 h) it was 4.16.

In the case of `N#Cc1cc(-n2cc(-c3cccc(Nc4ncnc5ccccc45)c3)nn2)ccc1C(F)(F)F`, the negative logarithm of the IC50 (pIC50) in experiment [1] (Homo sapiens, SK-LU-1, 72 h) was 5.35; in experiment [2] (Homo sapiens, KB, 72 h), 5.84; in experiment [8] (Homo sapiens, HepG2, 72 h), 5.73. Moreover, the “Ratio IC50” value in experiment [3], in experiment [4], in [5], in experiment [6], in experiment [7] and in experiment [9] was “<=100” in each case.

As for `N#Cc1cc(-n2cc(-c3cccc(Nc4ncnc5cc6c(cc45)OCO6)c3)nn2)ccc1C(F)(F)F`, the negative-log IC50 (pIC50) in experiment [1] (Homo sapiens, SK-LU-1, 72 h) is 4.56; in experiment [2] (Homo sapiens, KB, 72 h), 5.34; in [8] (Homo sapiens, HepG2, 72 h), 5.21. Moreover, the “Ratio IC50” value in experiment [3], in experiment [4], in [5], in [6], in experiment [7] and in experiment [9] was “<=100” each time.

With `O=[N+]([O-])c1cccc(-n2cc(-c3cccc(Nc4ncnc5ccccc45)c3)nn2)c1`, the negative logarithm of the IC50 (pIC50) is 3.59 in experiment [1] (Homo sapiens, SK-LU-1, 72 h); 3.98 in [2] (Homo sapiens, KB, 72 h); 3.54 in experiment [8] (Homo sapiens, HepG2, 72 h).

As for `C#Cc1cccc(Nc2ncnc3cc4c(cc23)OCO4)c1`, the pIC50 in [1] (Homo sapiens, SK-LU-1, 72 h) was 4.19; in experiment [2] (Homo sapiens, KB, 72 h), 4.12; in experiment [8] (Homo sapiens, HepG2, 72 h), 4.58.

As to `N#Cc1cc(-n2cc(-c3cccc(Nc4ncnc5cc6c(cc45)OCCCO6)c3)nn2)ccc1C(F)(F)F`, the negative logarithm of the IC50 (pIC50) was 5.74 in [1] (Homo sapiens, SK-LU-1, 72 h); 5.83 in [2] (Homo sapiens, KB, 72 h); 5.79 in experiment [8] (Homo sapiens, HepG2, 72 h). Further, the “Ratio IC50” value in [3], in experiment [4], in [5], in experiment [6], in experiment [7] and in experiment [9] was “<=100” each time.

Consider `O=[N+]([O-])c1ccc(-n2cc(-c3cccc(Nc4ncnc5ccccc45)c3)nn2)cc1`, for which the pIC50 in experiment [1] (Homo sapiens, SK-LU-1, 72 h) was 5.04; in experiment [2] (Homo sapiens, KB, 72 h), 5.26; in experiment [8] (Homo sapiens, HepG2, 72 h) it was 5.09. For the same compound, the “Ratio IC50” value in experiment [3], in experiment [4], in [5], in experiment [6], in [7] and in [9] was “<=100” each time.

In the case of `O=[N+]([O-])c1ccc(-n2cc(-c3cccc(Nc4ncnc5cc6c(cc45)OCO6)c3)nn2)cc1`, the pIC50 in experiment [1] (Homo sapiens, SK-LU-1, 72 h) is 4.35; in experiment [2] (Homo sapiens, KB, 72 h), 4.52; in experiment [8] (Homo sapiens, HepG2, 72 h) it was 4.95.

As to `O=[N+]([O-])c1ccc(-n2cc(-c3cccc(Nc4ncnc5cc6c(cc45)OCCO6)c3)nn2)cc1`, the pIC50 is 4.26 in experiment [1] (Homo sapiens, SK-LU-1, 72 h); 4.10 in experiment [2] (Homo sapiens, KB, 72 h); 3.64 in experiment [8] (Homo sapiens, HepG2, 72 h).

Take `C#Cc1cccc(Nc2ncnc3ccccc23)c1`: the pIC50 in experiment [1] (Homo sapiens, SK-LU-1, 72 h) was 5.38; in experiment [2] (Homo sapiens, KB, 72 h) it was 5.26; in [8] (Homo sapiens, HepG2, 72 h) it was 5.38. The “Ratio IC50” value in experiment [3], in [4], in experiment [5], in [6], in experiment [7] and in experiment [9] was “<=100” throughout.

Consider `O=[N+]([O-])c1cccc(-n2cc(-c3cccc(Nc4ncnc5cc6c(cc45)OCCO6)c3)nn2)c1`, for which the negative logarithm of the IC50 (pIC50) is 5.25 in experiment [1] (Homo sapiens, SK-LU-1, 72 h); 5.45 in experiment [2] (Homo sapiens, KB, 72 h); 6.06 in [8] (Homo sapiens, HepG2, 72 h). In addition, the “Ratio IC50” value in experiment [3], in [4], in [5], in [6], in experiment [7] and in experiment [9] was “<=100” throughout.

In the case of `O=[N+]([O-])c1ccccc1-n1cc(-c2cccc(Nc3ncnc4cc5c(cc34)OCCO5)c2)nn1`, the pIC50 in [1] (Homo sapiens, SK-LU-1, 72 h) is 5.99; in experiment [2] (Homo sapiens, KB, 72 h) it was 7.40; in experiment [8] (Homo sapiens, HepG2, 72 h), 6.85. For the same compound, the “Ratio IC50” value in experiment [3], in [4], in experiment [5], in experiment [6], in experiment [7] and in experiment [9] was “<=100” in each case.

As to `N#Cc1cc(-n2cc(-c3cccc(Nc4ncnc5cc6c(cc45)OCCO6)c3)nn2)ccc1C(F)(F)F`, the negative logarithm of the IC50 (pIC50) in experiment [1] (Homo sapiens, SK-LU-1, 72 h) was 5.35; in [2] (Homo sapiens, KB, 72 h), 6.57; in [8] (Homo sapiens, HepG2, 72 h), 5.22. The “Ratio IC50” value in [3], in experiment [4], in experiment [5], in experiment [6], in experiment [7] and in experiment [9] was “<=100” each time.

On to `O=[N+]([O-])c1cccc(-n2cc(-c3cccc(Nc4ncnc5cc6c(cc45)OCO6)c3)nn2)c1`, for which the pIC50 in experiment [1] (Homo sapiens, SK-LU-1, 72 h) was 5.18; in [2] (Homo sapiens, KB, 72 h), 5.20; in [8] (Homo sapiens, HepG2, 72 h), 5.16. Also, the “Ratio IC50” value in [3], in [4], in experiment [5], in [6], in experiment [7] and in experiment [9] was “<=100” in each case.

As for `Cc1c2ccncc2c(C)c2c1[nH]c1ccccc12` [ELLIPTECINE], the negative-log IC50 (pIC50) in experiment [1] (Homo sapiens, SK-LU-1, 72 h) was 5.86; in experiment [2] (Homo sapiens, KB, 72 h), 5.71; in experiment [8] (Homo sapiens, HepG2, 72 h), 5.57.

As for `C#Cc1cccc(Nc2ncnc3cc(OCCOC)c(OCCOC)cc23)c1` [ERLOTINIB HYDROCHLORIDE], the negative logarithm of the IC50 (pIC50) in experiment [1] (sk-lu-1) was 4.51; in experiment [2] (kb), 4.30; in experiment [8] (hepg2) it was 4.85.

In the case of `C#Cc1cccc(Nc2ncnc3cc(OCCOC)c(OCCOC)cc23)c1` [ERLOTINIB], the negative-log IC50 (pIC50) is 4.00 in experiment [1] (sk-lu-1) and 4.89 in experiment [2] (kb).
